Like-named read-outs stand apart in the source and are kept apart here.
What was measured:
BRD4 (BDI_K57-E168) = target: T1, BRD4 (BDI_K57-E168) (Homo sapiens, UniProt O60885); assay: TR-FRET bromodomain binding assay, first bromodomain of BRD4; settings: TR-FRET assay protocol G (compound 0.92 μM-15 pM); 100 nM probe
T1 construct: BD1: amino acids K57-E168; made in house
Outline: (§1)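 His-tagged BRD4 bromodomain (8 nM) was incubated with Eu-anti-His antibody (1 nM) and an Alexa647-labelled BET-inhibitor probe (100 nM for BDI, 30 nM for BDII) in pH 6.0 phosphate buffer with 2% DMSO for 1 h at room temperature. TR-FRET ratio was read, IC50 fitted by 4-parameter logistic, then converted to Ki.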

BRD4 (BDII_E352-M457) = target: T2, BRD4 (BDII_E352-M457) (Homo sapiens, UniProt O60885); assay: TR-FRET bromodomain binding assay, second bromodomain of BRD4; settings: TR-FRET assay protocol G (compound 0.92 μM-15 pM); 30 nM probe
T2 construct: protocol; made in house
Outline: as §1

[1] = tested on: breast cancer cell line MX-1; assay: MX-1 cell line proliferation assay; format: cell-based; settings: MX-1 cells, 3-day proliferation assay, Cell Titer Glo, read-out: Cellular proliferation: EC50
Outline: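 EC50 comes from sigmoidal fits of Cell Titer Glo luminescence relative to DMSO controls, with assay MSR 2.1. Ten-point 3-fold dilutions (top 3 or 1 μM final) were added to MX-1 breast cancer cells after overnight adhesion. Cells were at 5000/well and proliferation ran 3 days.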

| SMILES | Ki (BRD4 (BDI_K57-E168)) | Ki (BRD4 (BDII_E352-M457)) | EC50 [1] | EC50 ([1]; Homo sapiens, MX1, 72 h) |
| --- | --- | --- | --- | --- |
| Cn1cc2c3c(c[nH]c3c1=O)C(c1ccccc1)N(c1ccc(F)cc1F)c1ccc(CS(C)(=O)=O)cc1-2 (stereo not drawn) [Example 214, 4-(2,4-difluorophenyl)-10-methyl-7-((methylsulfonyl)methyl)-3-phenyl-3,4-dihydro-1H-1,4,10-triazadibenzo[cd,f]azulen-11(10H)-one] | 40.8 nM | 3.25 nM | 431 nM |  |
| Cn1cc2c3c(c[nH]c3c1=O)C(c1ccccc1)N(c1ccc(F)cc1F)c1ccc(CS(C)(=O)=O)cc1-2 [Example 216, (S)-4-(2,4-difluorophenyl)-10-methyl-7-((methylsulfonyl)methyl)-3-phenyl-3,4-dihydro-1H-1,4,10-triazadibenzo[cd,f]azulen-11(10H)-one] | 57.3 nM | 65.8 nM | 603 nM |  |
| Cn1cc2c3c(c[nH]c3c1=O)C(c1cccc3ccccc13)N(c1ccc(F)cc1F)c1ccc(CS(C)(=O)=O)cc1-2 (stereo not drawn) [Example 217, 4-(2,4-difluorophenyl)-10-methyl-7-((methylsulfonyl)methyl)-3-(naphthalen-1-yl)-3,4-dihydro-1H-1,4,10-triazadibenzo[cd,f]azulen-11(10H)-one] | 193 nM | 42.6 nM | > 1000 nM |  |
| Cn1cc2c3c(c[nH]c3c1=O)C(CC(C)(C)C)N(c1ccc(F)cc1F)c1ccc(CS(C)(=O)=O)cc1-2 (stereo not drawn) [Example 219, 4-(2,4-difluorophenyl)-10-methyl-7-((methylsulfonyl)methyl)-3-neopentyl-3,4-dihydro-1H-1,4,10-triazadibenzo[cd,f]azulen-11(10H)-one] | 39.9 nM | 4.76 nM | 301 nM |  |
| Cn1cc2c3c(c[nH]c3c1=O)C(CN1Cc3ccccc3C1=O)N(c1ccc(F)cc1F)c1ccc(CS(C)(=O)=O)cc1-2 (stereo not drawn) [Example 220, 4-(2,4-difluorophenyl)-10-methyl-7-((methylsulfonyl)methyl)-3-((1-oxoisoindolin-2-yl)methyl)-3,4-dihydro-1H-1,4,10-triazadibenzo[cd,f]azulen-11(10H)-one] | 51.6 nM | 2.61 nM | 285 nM |  |
| COc1cc(OC)cc(C2c3c[nH]c4c(=O)n(C)cc(c34)-c3cc(CS(C)(=O)=O)ccc3N2c2ccc(F)cc2F)c1 (stereo not drawn) [Example 222, 4-(2,4-difluorophenyl)-3-(3,5-dimethoxyphenyl)-10-methyl-7-((methylsulfonyl)methyl)-3,4-dihydro-1H-1,4,10-triazadibenzo[cd,f]azulen-11(10H)-one] | 170 nM | 29.4 nM | 160 nM |  |
| Cn1cc2c3c(c[nH]c3c1=O)C(c1ccccc1-c1ccccc1)N(c1ccc(F)cc1F)c1ccc(CS(C)(=O)=O)cc1-2 (stereo not drawn) [Example 230] | > 238 nM | 58.1 nM | 528 nM |  |
| Cn1cc2c3c(c[nH]c3c1=O)C(c1cccc3cccnc13)N(c1ccc(F)cc1F)c1ccc(CS(C)(=O)=O)cc1-2 (stereo not drawn) [Example 231, 4-(2,4-difluorophenyl)-10-methyl-7-((methylsulfonyl)methyl)-3-(quinolin-8-yl)-3,4-dihydro-1H-1,4,10-triazadibenzo[cd,f]azulen-11(10H)-one] | 39 nM | 5.42 nM | 149 nM |  |
| Cn1cc2c3c(c[nH]c3c1=O)C(c1ccccn1)N(c1ccc(F)cc1F)c1ccc(CS(C)(=O)=O)cc1-2 (stereo not drawn) [Example 232, 4-(2,4-difluorophenyl)-10-methyl-7-((methylsulfonyl)methyl)-3-(pyridin-2-yl)-3,4-dihydro-1H-1,4,10-triazadibenzo[cd,f]azulen-11(10H)-one] | 108 nM | 8.48 nM | 363 nM |  |
| Cn1cc2c3c(c[nH]c3c1=O)C(Cn1ccccc1=O)N(c1ccc(F)cc1F)c1ccc(CS(C)(=O)=O)cc1-2 (stereo not drawn) [Example 238, 4-(2,4-difluorophenyl)-10-methyl-7-((methylsulfonyl)methyl)-3-((2-oxopyridin-1(2H)-yl)methyl)-3,4-dihydro-1H-1,4,10-triazadibenzo[cd,f]azulen-11(10H)-one] | 62.1 nM | 4.6 nM | 275 nM |  |

Now those with a lower Ki (BRD4 (BDI_K57-E168)), led by results:

| Ki (BRD4 (BDI_K57-E168)) | Ki (BRD4 (BDII_E352-M457)) | EC50 [1] | EC50 ([1]; Homo sapiens, MX1, 72 h) | SMILES |
| --- | --- | --- | --- | --- |
| 1.72 nM | 0.8 nM | 13.3 nM |  | Cn1cc2c3c(c(C#N)[nH]c3c1=O)CN(c1ccc(F)cc1F)c1ccc(CS(C)(=O)=O)cc1-2 [Example 210, 4-(2,4-difluorophenyl)-10-methyl-7-((methylsulfonyl)methyl)-11-oxo-3,4,10,11-tetrahydro-1H-1,4,10-triazadibenzo[cd,f]azulene-2-carbonitrile] |
| 5.67 nM | 7.47 nM | 118 nM |  | COc1cc(N2Cc3c[nH]c4c(=O)n(C)cc(c34)-c3cc(CS(C)(=O)=O)ccc32)cc(OC)c1OC [Example 211, 10-methyl-7-((methylsulfonyl)methyl)-4-(3,4,5-trimethoxyphenyl)-3,4-dihydro-1H-1,4,10-triazadibenzo[cd,f]azulen-11(10H)-one] |
| 0.64 nM | 0.64 nM |  | 1.36 nM | [2H]C1([2H])c2c[nH]c3c(=O)n(C)cc(c23)-c2cc(CS(C)(=O)=O)ccc2N1c1ccc(F)cc1F [Example 218, 4-(2,4-difluorophenyl)-(3,3-^2H2)-10-methyl-7-((methylsulfonyl)methyl)-3,4-dihydro-1H-1,4,10-triazadibenzo[cd,f]azulen-11(10H)-one] |
| 1.64 nM | 1.4 nM | 5.84 nM |  | COC(=O)NC1CCC(N2Cc3c[nH]c4c(=O)n(C)cc(c34)-c3cc(CS(C)(=O)=O)ccc32)CC1 (stereo not drawn) [Example 224, methyl (4-(10-methyl-7-((methylsulfonyl)methyl)-11-oxo-10,11-dihydro-1H-1,4,10-triazadibenzo[cd,f]azulen-4(3H)-yl)cyclohexyl)carbamate] |
| 3.25 nM | 2.39 nM | 12.2 nM |  | COC(=O)NC1CCC(N2Cc3c[nH]c4c(=O)n(C)cc(c34)-c3cc(CS(C)(=O)=O)ccc32)CC1 (stereo not drawn) [Example 225, methyl ((trans)-4-(10-methyl-7-((methylsulfonyl)methyl)-11-oxo-10,11-dihydro-1H-1,4,10-triazadibenzo[cd,f]azulen-4(3H)-yl)cyclohexyl)carbamate] |
| 3.84 nM | 1.86 nM | 7.82 nM |  | COC(=O)NC1CCC(N2Cc3c[nH]c4c(=O)n(C)cc(c34)-c3cc(CS(C)(=O)=O)ccc32)CC1 (stereo not drawn) [Example 226, methyl ((cis)-4-(10-methyl-7-((methylsulfonyl)methyl)-11-oxo-10,11-dihydro-1H-1,4,10-triazadibenzo[cd,f]azulen-4(3H)-yl)cyclohexyl)carbamate] |
| 24.5 nM | 2.22 nM | 84.9 nM |  | Cn1cc2c3c(c[nH]c3c1=O)C(C1CCOCC1)N(c1ccc(F)cc1F)c1ccc(CS(C)(=O)=O)cc1-2 (stereo not drawn) [Example 228, 4-(2,4-difluorophenyl)-10-methyl-7-((methylsulfonyl)methyl)-3-(tetrahydro-2H-pyran-4-yl)-3,4-dihydro-1H-1,4,10-triazadibenzo[cd,f]azulen-11(10H)-one] |
| 21.8 nM | 12.1 nM | 313 nM |  | Cn1cc2c3c(c[nH]c3c1=O)C(c1cccc(C#N)c1)N(c1ccc(F)cc1F)c1ccc(CS(C)(=O)=O)cc1-2 (stereo not drawn) [Example 237, 3-(4-(2,4-difluorophenyl)-10-methyl-7-((methylsulfonyl)methyl)-11-oxo-3,4,10,11-tetrahydro-1H-1,4,10-triazadibenzo[cd,f]azulen-3-yl)benzonitrile] |
| 31.9 nM | 2.12 nM | 294 nM |  | CCNC(=O)c1[nH]c2c(=O)n(C)cc3c2c1C(C(=O)OCC)N(c1ccc(F)cc1F)c1ccc(CS(C)(=O)=O)cc1-3 (stereo not drawn) [Example 239, ethyl 4-(2,4-difluorophenyl)-2-(ethylcarbamoyl)-10-methyl-7-((methylsulfonyl)methyl)-11-oxo-3,4,10,11-tetrahydro-1H-1,4,10-triazadibenzo[cd,f]azulene-3-carboxylate] |
| 3.14 nM | 1.93 nM | 85.9 nM |  | Cn1cc2c3c(c[nH]c3c1=O)CN(c1ccc(F)cc1F)c1c(C(N)=O)cc(CS(C)(=O)=O)cc1-2 [Example 240, 4-(2,4-difluorophenyl)-10-methyl-7-((methylsulfonyl)methyl)-11-oxo-3,4,10,11-tetrahydro-1H-1,4,10-triazadibenzo[cd,f]azulene-5-carboxamide] |
| 3.07 nM | 1.76 nM | 51.5 nM |  | CNC(=O)c1cc(CS(C)(=O)=O)cc2c1N(c1ccc(F)cc1F)Cc1c[nH]c3c(=O)n(C)cc-2c13 [Example 241, 4-(2,4-difluorophenyl)-N,10-dimethyl-7-((methylsulfonyl)methyl)-11-oxo-3,4,10,11-tetrahydro-1H-1,4,10-triazadibenzo[cd,f]azulene-5-carboxamide] |
| 12.6 nM | 3.78 nM | > 1000 nM |  | CN(C)C(=O)c1cc(CS(C)(=O)=O)cc2c1N(c1ccc(F)cc1F)Cc1c[nH]c3c(=O)n(C)cc-2c13 [Example 242, 4-(2,4-difluorophenyl)-N,N,10-trimethyl-7-((methylsulfonyl)methyl)-11-oxo-3,4,10,11-tetrahydro-1H-1,4,10-triazadibenzo[cd,f]azulene-5-carboxamide] |

— US10035800B2 (AbbVie Inc., priority 2013, dated 2018)
